Square brackets hold non-standard residues; d marks the D form. Ends that are not written are not given here. pGlu = O=C1CC[C@@H](C(=O)O)N1
Experiments:
[1] = tested on: panelists (salt perception); assay: Increased Salt Perception Protocol (descriptive sensory panel); format: in vivo, human; settings: for Mean salt perception in mouth: scale anchored to 0.35% salt reference = 5.0; for Mean salt perception after expectoration: re-tasting of salt reference (0.35% salt, intensity 5.0)
Experimental: Descriptive Profiles (Flavor and Chemical Feeling Factors) of five use levels of a pGlu-Val-Leu flavor composition were determined. The five use levels were as follows:
Data was collected for the flavor and chemical feeling factors of the product in mouth for each of the five use levels according to the following protocol:
1. Each panelist tasted a salt reference (0.35% salt solution) with a reference salt intensity of 5.0 which provided a baseline for each panelist's Sensory Spectrum for salt intensity.
2. Each panelist tasted a test sample (0.1 ppb, 0.5 ppb, 1.0 ppb, 10.0 ppb or 40.0 ppb all in 0.2% NaCl solution). Only one sample was tasted per session.
3. Each panelist re-tasted the salt reference (5.0 intensity) and rated it for salt intensity as well as any other basic taste, chemical feeling factor, or aromatic perceived. Thus, any increased salt perception as a result of the test sample would be determined, as well as any other perceptions present. Return to Baseline Protocol
The test samples were formulated as follows: […]

[2] = tested on: panelists (salt perception); assay: Return to Baseline Protocol (saltiness aftertaste, sensory panel); format: in vivo, human; settings: salt reference re-tasted at 1 minute intervals until intensity 5.0
Experimental: After evaluating the sample for salt and other perceptions (step 3 above), each panelist re-tasted the salt reference (5.0 intensity) at 1 minute intervals until their perception of the saltiness intensity of the reference returned to 5.0. Each panelist recorded salt intensity at each interval and took qualitative notes on other perceptions seen in aftertaste.

[pGlu]-Val-Leu
Mean salt perception in mouth ([1]; 0.1 ppb peptide in 0.2% NaCl solution): 2.3 | Mean salt perception after expectoration ([1]; 0.1 ppb sample): 6.8 | perception of salt in-mouth as concentration increased ([1]; 0.1 to 40.0 ppb in 0.2% NaCl solution): did not significantly increase | Mean salt perception in mouth ([1]; 0.5 ppb peptide in 0.2% NaCl solution): 2.8 | Mean salt perception after expectoration ([1]; 0.5 ppb sample): 6.4 | Mean salt perception in mouth ([1]; 1.0 ppb peptide in 0.2% NaCl solution): 2.3 | Mean salt perception after expectoration ([1]; 1.0 ppb sample): 7.5 | Mean salt perception in mouth ([1]; 10.0 ppb peptide in 0.2% NaCl solution): 3.1 | Mean salt perception after expectoration ([1]; 10.0 ppb sample): 8.2 | Mean salt perception in mouth ([1]; 40.0 ppb peptide in 0.2% NaCl solution): 2.8 | Mean salt perception after expectoration ([1]; 40.0 ppb sample): 8.3 | Salt perception after expectoration ([1]; all samples (0.1 to 40.0 ppb), versus reference intensity 5.0): increased | Mean time needed to return to baseline ([2]; 0.1 ppb sample): 7.6 min | Mean time needed to return to baseline ([2]; 0.5 ppb sample): 9.5 min | Mean time needed to return to baseline ([2]; 1.0 ppb sample): 8.7 min | Mean time needed to return to baseline ([2]; 10.0 ppb sample): 8.6 min

Reference: patent US10834946B2, “Flavor composition and edible compositions containing same” (Mars, Incorporated, priority 2013, dated 2020)
